The source made the active and inactive calls. The rule behind the calls is not given here.
Assays:
[1] = Cmax in Wistar Han rat at 100 mg/kg, po measured upto 24 hrs by LC-MS/MS analysis; type: ADME, organism-based; set-up: time < 24 hrs, dose 100 mg/kg, route po; conditions: in vivo
[2] = target: T1, Glucagon-like peptide 1 receptor (Homo sapiens, UniProt P43220); experiment: Agonist activity at human GLP-1R expressed in CHO-K1 cells assessed as cAMP accumulation by measuring maximum efficacy at 20 uM incubated for 30 mins in presence of BETP by BETP sensitized time-resolved fluorescence assay relative to control; type: functional, cell-based; conditions: filed as agonist
T1 sequence (P43220 whole entry): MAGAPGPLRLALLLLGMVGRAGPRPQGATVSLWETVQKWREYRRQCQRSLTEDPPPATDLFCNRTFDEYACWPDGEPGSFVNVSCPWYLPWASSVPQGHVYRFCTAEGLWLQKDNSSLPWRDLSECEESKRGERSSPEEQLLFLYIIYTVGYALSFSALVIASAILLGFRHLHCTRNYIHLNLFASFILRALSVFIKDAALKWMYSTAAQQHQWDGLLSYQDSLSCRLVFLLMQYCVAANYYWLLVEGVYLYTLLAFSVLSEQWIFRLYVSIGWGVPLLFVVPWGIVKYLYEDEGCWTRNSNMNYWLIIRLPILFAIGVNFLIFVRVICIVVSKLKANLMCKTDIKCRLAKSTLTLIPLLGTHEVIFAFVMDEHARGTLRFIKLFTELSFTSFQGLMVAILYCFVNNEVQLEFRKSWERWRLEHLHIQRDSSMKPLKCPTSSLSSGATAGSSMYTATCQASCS

[3] = Lipophilicity, logD of compound at pH 7.4 by shake-flash method; type: physicochemical; conditions: buffer
[4] = Metabolic stability in human liver microsomes assessed as intrinsic clearance in the presence of NADPH by HPLC-MS/MS analysis; type: ADME, Microsome
[5] = target: Voltage-gated inwardly rectifying potassium channel KCNH2 (Homo sapiens, UniProt Q12809); experiment: Inhibition of hERG ion channel by patch-clamp method; type: toxicity
Sequence of Voltage-gated inwardly rectifying potassium channel KCNH2 (Q12809 whole entry): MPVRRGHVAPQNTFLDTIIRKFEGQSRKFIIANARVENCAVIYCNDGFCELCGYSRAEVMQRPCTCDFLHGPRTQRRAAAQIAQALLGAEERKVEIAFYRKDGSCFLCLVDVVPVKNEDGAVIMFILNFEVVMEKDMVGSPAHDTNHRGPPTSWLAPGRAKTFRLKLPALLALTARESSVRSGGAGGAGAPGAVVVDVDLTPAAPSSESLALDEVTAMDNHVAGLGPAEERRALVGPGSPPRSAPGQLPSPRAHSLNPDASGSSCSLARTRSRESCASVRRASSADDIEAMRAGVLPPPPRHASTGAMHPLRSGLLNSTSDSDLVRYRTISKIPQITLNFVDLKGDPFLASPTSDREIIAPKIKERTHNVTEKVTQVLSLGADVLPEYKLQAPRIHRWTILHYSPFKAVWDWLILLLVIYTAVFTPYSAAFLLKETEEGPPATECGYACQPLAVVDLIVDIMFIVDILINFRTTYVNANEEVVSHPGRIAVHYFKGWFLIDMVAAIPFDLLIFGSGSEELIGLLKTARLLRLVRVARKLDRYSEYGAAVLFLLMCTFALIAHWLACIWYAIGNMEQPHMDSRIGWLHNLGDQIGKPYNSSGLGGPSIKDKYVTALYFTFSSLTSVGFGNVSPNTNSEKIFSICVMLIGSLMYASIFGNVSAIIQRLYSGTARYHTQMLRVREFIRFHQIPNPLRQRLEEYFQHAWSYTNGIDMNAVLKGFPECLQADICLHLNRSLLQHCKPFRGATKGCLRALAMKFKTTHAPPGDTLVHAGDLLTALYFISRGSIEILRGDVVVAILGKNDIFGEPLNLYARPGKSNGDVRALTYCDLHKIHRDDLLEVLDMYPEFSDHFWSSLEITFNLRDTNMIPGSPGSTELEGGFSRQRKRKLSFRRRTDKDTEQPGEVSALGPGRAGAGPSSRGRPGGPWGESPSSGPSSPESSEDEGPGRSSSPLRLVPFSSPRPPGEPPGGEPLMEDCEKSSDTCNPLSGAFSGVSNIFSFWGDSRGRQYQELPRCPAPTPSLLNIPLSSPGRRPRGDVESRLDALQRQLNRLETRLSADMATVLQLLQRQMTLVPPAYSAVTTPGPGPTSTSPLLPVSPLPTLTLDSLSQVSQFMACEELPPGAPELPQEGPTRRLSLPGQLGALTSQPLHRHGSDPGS

[6] = Activation of rabbit GLP-1R expressed in CHO cells assessed as increase in cAMP accumulation; type: cell-based; conditions: Oryctolagus cuniculus
[7] = Cmax in Wistar Han rat at 5 mg/kg, po measured upto 24 hrs by LC-MS/MS analysis; type: ADME, organism-based; set-up: dose 5 mg/kg, time < 24 hrs, route po; conditions: in vivo
CHO = experiment: Activation of mouse GLP-1R S33W mutant expressed in CHO cells assessed as increase in cAMP accumulation; type: cell-based; conditions: filed as activator
[8] = Cmax in cynomologus monkey at 5 mg/kg, po measured upto 24 hrs by LC-MS/MS analysis; type: ADME, organism-based, Macaca fascicularis; set-up: time < 24 hrs, dose 5 mg/kg, route po; conditions: cynomolgus monkey, in vivo
[9] = Cmax in cynomologus monkey at 100 mg/kg, po measured upto 24 hrs by LC-MS/MS analysis; type: ADME, organism-based, Macaca fascicularis; set-up: time < 24 hrs, dose 100 mg/kg, route po; conditions: cynomolgus monkey, in vivo
[10] = AUC(0 to infinity) in cynomologus monkey at 1 mg/kg, iv measured upto 24 hrs by LC-MS/MS analysis; type: ADME, organism-based, Macaca fascicularis; set-up: dose 1 mg/kg, time < 24 hrs, route iv; conditions: cynomolgus monkey, in vivo
[11] = AUC(0 to infinity) in cynomologus monkey at 5 mg/kg, po measured upto 24 hrs by LC-MS/MS analysis; type: ADME, organism-based, Macaca fascicularis; set-up: time < 24 hrs, dose 5 mg/kg, route po; conditions: cynomolgus monkey, in vivo
[12] = AUC(0 to infinity) in cynomologus monkey at 100 mg/kg, po measured upto 24 hrs by LC-MS/MS analysis; type: ADME, organism-based, Macaca fascicularis; set-up: dose 100 mg/kg, time < 24 hrs, route po; conditions: cynomolgus monkey, in vivo
[13] = AUC (0 to infinity) in Wistar Han rat at 1 mg/kg, iv measured upto 24 hrs by LC-MS/MS analysis; type: ADME, organism-based; set-up: time < 24 hrs, dose 1 mg/kg, route iv; conditions: in vivo
[14] = AUC (0 to infinity) in Wistar Han rat at 5 mg/kg, po measured upto 24 hrs by LC-MS/MS analysis; type: ADME, organism-based; set-up: dose 5 mg/kg, time < 24 hrs, route po; conditions: in vivo
[15] = AUC (0 to infinity) in Wistar Han rat at 100 mg/kg, po measured upto 24 hrs by LC-MS/MS analysis; type: ADME, organism-based; set-up: dose 100 mg/kg, time < 24 hrs, route po; conditions: in vivo
[16] = Volume of distribution at steady state in Wistar Han rat at 1 mg/kg, iv measured upto 24 hrs by LC-MS/MS analysis; type: ADME, organism-based; conditions: in vivo
[17] = Volume of distribution at steady state in cynomologus monkey at 1 mg/kg, iv measured upto 24 hrs by LC-MS/MS analysis; type: ADME, organism-based, Macaca fascicularis; conditions: cynomolgus monkey, in vivo
[18] = Oral bioavailability in cynomologus monkey at 5 mg/kg measured upto 24 hrs by LC-MS/MS analysis; type: ADME, organism-based, Macaca fascicularis; conditions: cynomolgus monkey, in vivo
[19] = Oral bioavailability in cynomologus monkey at 100 mg/kg measured upto 24 hrs by LC-MS/MS analysis; type: ADME, organism-based, Macaca fascicularis; conditions: cynomolgus monkey, in vivo
[20] = Oral bioavailability in Wistar Han rat at 5 mg/kg measured upto 24 hrs by LC-MS/MS analysis; type: ADME, organism-based; conditions: in vivo
[21] = Oral bioavailability in Wistar Han rat at 100 mg/kg measured upto 24 hrs by LC-MS/MS analysis; type: ADME, organism-based; conditions: in vivo
Macaca fascicularis [22] = experiment: Induction of insulin secretion in cynomologus monkey assessed as induction of glucose-induced insulin secretion at 1.8 mg, iv dosed once daily by IVGTT; type: functional, organism-based; conditions: DDE = dose-dependent effect
Macaca fascicularis [23] = experiment: Induction of insulin secretion in cynomologus monkey assessed as glucose disappearance at 1.8 mg, iv dosed once daily by IVGTT assay; type: functional, organism-based
Cynomolgus monkey = experiment: Reduction in food intake in cynomologus monkey at 2.9 mg/kg, po administered once daily for 2 days relative to control; type: functional, organism-based; conditions: Macaca fascicularis, time 2.0 day
[24] = target: T1, Glucagon-like peptide 1 receptor; experiment: Agonist activity at FAP-tagged human GLP-1R expressed in HEK293 cells assessed as receptor internalization measured after 30 mins by nuclear staining based confocal microscopic analysis; type: functional, cell-based; conditions: filed as agonist
in vitro = conditions: human, hepatocytes
[25] = target: T1, Glucagon-like peptide 1 receptor; experiment: Agonist activity at human GLP-1R expressed in PathHunter CHO-K1 GLP1R beta-arrestin-2 cell assessed as induction of beta-arrestin 2 recruitment incubated for 90 mins in presence of BETP by PathHunter assay; type: functional, cell-based
[26] = target: T1, Glucagon-like peptide 1 receptor; experiment: Agonist activity at human GLP-1R expressed in PathHunter CHO-K1 GLP1R beta-arrestin-2 cells assessed as induction of beta-arrestin 2 recruitment by measuring maximum efficacy incubated for 90 mins in presence of BETP by PathHunter assay relative to control; type: functional, cell-based
[27] = target: T1, Glucagon-like peptide 1 receptor
[28] = target: T1, Glucagon-like peptide 1 receptor; remark: listed apart in the source
[29] = target: T1, Glucagon-like peptide 1 receptor; remark: listed apart in the source
[30] = target: T1, Glucagon-like peptide 1 receptor; remark: listed apart in the source
[31] = target: T1, Glucagon-like peptide 1 receptor; remark: listed apart in the source
[32] = target: T1, Glucagon-like peptide 1 receptor; remark: listed apart in the source
[33] = target: T1, Glucagon-like peptide 1 receptor; experiment: biochemical
[34] = Lipophilicity, logD of compound at pH 7.4 by RP-HPLC analysis; type: physicochemical; conditions: buffer

N#Cc1ccc(COc2cccc(C3CCN(Cc4nc5ccc(C(=O)O)cc5n4C[C@@H]4CCO4)CC3)n2)c(F)c1 [DANUGLIPRON]
Cmax [1]: 2820 ng/mL | Emax [2]: 110% | logD [3]: 1.8 | CLH [4]: < 10 µL/min | IC50 [5]: 4300 nM | EC50 [6]: > 20000 nM | Cmax [7]: 141 ng/mL | Activity (CHO): Active | Cmax [8]: 68.7 ng/mL | Cmax [9]: 1150 ng/mL | AUC [10]: 1240 ng·h/mL | AUC [11]: 303 ng·h/mL | AUC [12]: 11000 ng·h/mL | AUC [13]: 296 ng·h/mL | AUC [14]: 168 ng·h/mL | AUC [15]: 11900 ng·h/mL | Vdss [16]: 0.86 L/kg | Vdss [17]: 0.266 L/kg | bioavailability [18]: 5% | bioavailability [19]: 9% | bioavailability [20]: 11% | bioavailability [21]: 39% | Activity (Macaca fascicularis [22]): Dde | Activity (Macaca fascicularis [23]): Active | Activity (Cynomolgus monkey): Active | Activity [24]: Active | hepatocyte CLint (in vitro): 6.9 µL/min/1e6 cells

Cn1c(CN2CCC(c3cccc(OCc4ccc(Cl)cc4F)n3)CC2)nc2nccc(NCC(=O)O)c21
Emax [2]: 90% | EC50 [25]: 1500 nM | Emax [26]: 23% | logD [3]: 2.3 | IC50 [5]: > 10000 nM | EC50 [27]: 44 nM | EC50 [28]: 4600 nM | EC50 [29]: > 20000 nM | EC50 [30]: > 30000 nM | hepatocyte CLint (in vitro): 37 µL/min/1e6 cells

CCn1cncc1Cn1c(CN2CCC(c3cccc(OCc4ccc(F)cc4F)n3)CC2)nc2ccc(C(=O)O)cc21
EC50 [28]: 0.75 nM | EC50 [29]: 8.6 nM | EC50 [31]: 250 nM | EC50 [32]: 610 nM | Ki [33]: 51 nM

Cn1c(CN2CCC(c3nc(OCc4ccc(Cl)cc4F)ncc3F)CC2)nc2ccccc21
logD [34]: 5.6 | IC50 [5]: 5400 nM | EC50 [27]: > 9900 nM | EC50 [28]: > 20000 nM | EC50 [29]: > 20000 nM | hepatocyte CLint (in vitro): 48 µL/min/1e6 cells

Cn1c(CN2CCC(c3cccc(OCc4ccc(Cl)cc4F)n3)CC2)nc2ccc(C(=O)O)nc21
Emax [2]: 84% | EC50 [25]: 2800 nM | Emax ([26]; filed as agonist): 99% | logD [3]: 2 | IC50 [5]: > 100000 nM | EC50 [27]: 6.7 nM | EC50 [28]: 95 nM | EC50 [29]: 2100 nM | EC50 [30]: > 30000 nM | hepatocyte CLint (in vitro): 31 µL/min/1e6 cells

Cn1c(CN2CCC(c3cccc(OCc4ccc(Cl)cc4F)n3)CC2)nc2ccncc21
Emax [2]: 86% | EC50 [25]: 9600 nM | Emax ([26]; filed as agonist): 100% | logD [34]: 5.7 | IC50 [5]: 5600 nM | EC50 [27]: 77 nM | EC50 [28]: 2600 nM | EC50 [29]: > 20000 nM | EC50 [30]: > 30000 nM | hepatocyte CLint (in vitro): 55 µL/min/1e6 cells
